The values below come from patent publication US20230201188A1, “COMPOSITIONS AND METHODS FOR TREATING LEUKEMIA” (Augusta University Research Institute, Inc., priority 2020, published 2023).

The subject of one assay is HUT102 cells. As to the kind of experiment: HUT102 cell viability. The settings on record: various concentrations, FIG. 1A. It is filed as cell-based. The protocol: (§1) HUT 102 cells and patient-derived ATL cells were treated with various concentrations of mJJ64C (Compound 17) or mJJ64 (Compound 1). Cell viability was determined.
The target in another assay is Akt3 (Homo sapiens, UniProt Q9Y243). The experiment in a line: Akt3 inhibition (no method described).
Assay [1] deals with patient-derived ATL cells. The experiment in a line: ATL patient-derived cell viability. It is filed as cell-based. The settings on record: various concentrations, FIG. 1B. How it is done:
as §1

For a further assay, the system named is c-myc. As to the kind of experiment: c-myc gene expression in HUT102 cells (RT-PCR). It is filed as cell-based. The settings on record: at 2 uM and above, FIG. 2. The protocol: (§2) HUT102 cells were treated with different concentrations of Compound 17 (0.5 uM, 1 uM, 2 uM and 4 uM). Expression of b-cat, c-myc, and survivin were evaluated using RT-PCR.
The next assay deals with survivin. The experiment in a line: survivin gene expression in HUT102 cells (RT-PCR). The settings on record: at 2 uM and above, FIG. 2. Type of assay: cell-based. The protocol: as §2
In the next assay the test system is b-cat. As to the kind of experiment: b-cat gene expression in HUT102 cells (RT-PCR). The settings on record: at 2 uM and above, FIG. 2. It is filed as cell-based. How it is done: as §2

The structures appear in SMILES notation.

Sequence of Akt3 (Q9Y243 whole entry): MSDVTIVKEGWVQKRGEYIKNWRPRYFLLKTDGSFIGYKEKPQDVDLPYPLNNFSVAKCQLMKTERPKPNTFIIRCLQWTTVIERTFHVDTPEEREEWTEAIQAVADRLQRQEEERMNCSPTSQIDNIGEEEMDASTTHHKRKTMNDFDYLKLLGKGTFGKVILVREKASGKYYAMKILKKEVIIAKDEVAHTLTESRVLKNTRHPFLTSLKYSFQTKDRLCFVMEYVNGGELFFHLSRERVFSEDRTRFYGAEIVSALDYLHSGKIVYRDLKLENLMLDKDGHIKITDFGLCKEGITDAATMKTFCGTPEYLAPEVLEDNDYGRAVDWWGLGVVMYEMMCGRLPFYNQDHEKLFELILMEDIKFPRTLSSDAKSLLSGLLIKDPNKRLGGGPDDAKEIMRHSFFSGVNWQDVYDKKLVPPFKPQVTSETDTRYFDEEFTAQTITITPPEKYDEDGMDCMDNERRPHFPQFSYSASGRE

On to `O=C(O)c1ccc2nccc(Nc3ccc(C(=O)Nc4ccc(Nc5ccncc5)cc4)cc3)c2c1` [Compound 18], for which, in the assay with HUT102 cells, the cell viability entry is on record as “reduce cell viability”.
Regarding `O=C(Nc1ccc(Nc2ccncc2)cc1)c1ccc(Nc2ccnc3ccc([N+](=O)[O-])cc23)cc1` [Compound 1, 4-[(6-nitroquinolin-4-yl)amino]-N-[4-(pyridin-4-ylamino)phenyl]benzamide], on Akt3, the Akt3 activity entry is “selectively inhibits Akt3 activity”. Also, the cell viability entry in assay [1] is given as “reduce cell viability”.
For the compound `O=C(Nc1cccc(Nc2ccncc2)c1)c1cccc(Nc2ccnc3ccc(F)cc23)c1` [Compound 17], the expression of c-myc result in the assay on c-myc was “significantly inhibits”. In the assay on survivin, the expression of survivin result is given as “significantly inhibits”. The expression of b-cat entry in the assay with b-cat is recorded as “significantly inhibits”.
